Counter-ions that a name gives are not always drawn. Blank lines part the entries; values can stand above or below the molecule they belong to.
Columns and labels:
[1] = cited from earlier work
physchem [2] = assay: physchem
physchem [3] = assay: physchem; remark: listed apart in the source
Excerpt: The final pH values of the solutions ranged from about 4 to about 6.

- solubility at 24 h (physchem [2]; ammonium acetate 0.1 m, pH 5.4, Clemastine Fumarate Solubility): 6.1 mg/mL
- solubility at 24 h (physchem [2]; ammonium acetate 0.25 m, pH 5.5, Clemastine Fumarate Solubility): 12.2 mg/mL
- solubility at 24 h (physchem [2]; ammonium acetate 0.5 m, pH 5.6, Clemastine Fumarate Solubility): 25.7 mg/mL
- solubility at 24 h (physchem [2]; ammonium acetate 1.0 m, pH 5.7, Clemastine Fumarate Solubility): 43.3 mg/mL
- solubility at 24 h (physchem [2]; sodium acetate 0.1 m, pH 5.4, Clemastine Fumarate Solubility): 6.6 mg/mL
- solubility at 24 h (physchem [2]; sodium acetate 0.25 m, pH 5.5, Clemastine Fumarate Solubility): 14.3 mg/mL
- solubility at 24 h (physchem [2]; sodium acetate 0.5 m, pH 5.6, Clemastine Fumarate Solubility): 24 mg/mL
- solubility at 24 h (physchem [2]; sodium acetate 1.0 m, pH 5.7, Clemastine Fumarate Solubility): 41.2 mg/mL
- solubility at 24 h (physchem [2]; sodium ascorbate 0.1 m, pH 5.2, Clemastine Fumarate Solubility): 5.5 mg/mL
- solubility at 24 h (physchem [2]; sodium ascorbate 0.25 m, pH 5.2, Clemastine Fumarate Solubility): 7.5 mg/mL
- solubility at 24 h (physchem [2]; sodium ascorbate 0.5 m, pH 5.2, Clemastine Fumarate Solubility): 16.7 mg/mL
- solubility at 24 h (physchem [2]; sodium ascorbate 1.0 m, pH 5.3, Clemastine Fumarate Solubility): 30.6 mg/mL
- solubility at 24 h (physchem [2]; sodium citrate 0.15 m, pH 5.6, Clemastine Fumarate Solubility): 28.6 mg/mL
- solubility at 24 h (physchem [2]; sodium citrate 0.25 m, pH 5.7, Clemastine Fumarate Solubility): 40 mg/mL
- solubility at 24 h (physchem [2]; sodium fumarate 0.25 m, pH 6.2, Clemastine Fumarate Solubility): 44.2 mg/mL
- solubility at 24 h (physchem [2]; sodium fumarate 0.5 m, pH 6.4, Clemastine Fumarate Solubility): 82.1 mg/mL
- solubility at 24 h (physchem [2]; sodium glycinate 0.25 m, pH 9.1, Clemastine Fumarate Solubility): 15.5 mg/mL
- solubility at 24 h (physchem [2]; sodium glycinate 0.5 m, pH 9.4, Clemastine Fumarate Solubility): 26.6 mg/mL
- solubility at 24 h (physchem [2]; sodium malate 0.1 m, Clemastine Fumarate Solubility): 13.8 mg/mL
- solubility at 24 h (physchem [2]; sodium malate 0.25 m, pH 6, Clemastine Fumarate Solubility): 16.9 mg/mL
- solubility at 24 h (physchem [2]; sodium malate 0.5 m, pH 5.5, Clemastine Fumarate Solubility): 25.5 mg/mL
- solubility at 24 h (physchem [2]; sodium malate 1.0 m, pH 5.7, Clemastine Fumarate Solubility): 29.3 mg/mL
- solubility at 24 h (physchem [2]; sodium maleate 0.25 m, pH 6, Clemastine Fumarate Solubility): 41.4 mg/mL
- solubility at 24 h (physchem [2]; sodium maleate 0.5 m, pH 6.5, Clemastine Fumarate Solubility): 65 mg/mL
- solubility at 24 h (physchem [2]; sodium maleate 1.0 m, pH 6.8, Clemastine Fumarate Solubility): 153 mg/mL
- solubility at 24 h (physchem [2]; sodium succinate 0.25 m, pH 6.1, Clemastine Fumarate Solubility): 15.4 mg/mL
- solubility at 24 h (physchem [2]; sodium succinate 0.5 m, pH 6.3, Clemastine Fumarate Solubility): 18.2 mg/mL
- solubility at 24 h (physchem [2]; sodium tartarate 0.5 m, pH 5.1, Clemastine Fumarate Solubility): 13.3 mg/mL
- solubility (physchem [3]; acetate buffer 0.5 m, pH 4.1): 0.6 mg/mL
- solubility (physchem [3]; acetate buffer 0.5 m, pH 5): 3.8 mg/mL
- solubility (physchem [3]; acetate buffer 0.5 m, pH 5.3): 11.2 mg/mL
- solubility (physchem [3]; acetate buffer 0.5 m, pH 5.5): 18.2 mg/mL
- solubility (physchem [3]; acetate buffer 0.5 m, pH 5.7): 24 mg/mL
- solubility (physchem [3]; citrate buffer 0.5 m, pH 4.1): 2.7 mg/mL
- solubility (physchem [3]; citrate buffer 0.5 m, pH 4.9): 3.3 mg/mL
- solubility (physchem [3]; citrate buffer 0.5 m, pH 5.3): 31.6 mg/mL
- solubility (physchem [3]; citrate buffer 0.5 m, pH 5.6): 46.3 mg/mL
- solubility (physchem [3]; citrate buffer 0.5 m, pH 5.8): 47 mg/mL
Compound: CN1CCC[C@@H]1CCO[C@](C)(c1ccccc1)c1ccc(Cl)cc1 [Clemastine Fumarate, clemastine fumarate]
- solubility in alcohol ([1]; Remington, 19th edition, 1995): only slightly soluble
- solubility in water, chloroform or ether ([1]; Remington, 19th edition, 1995): very slightly soluble

Compound: CN1CCC[C@@H]1CCO[C@](C)(c1ccccc1)c1ccc(Cl)cc1 [clemastine]
- solubility in pharmaceutically acceptable solvents ([1]; as is well known in the art, clemastine and its salts): sparingly soluble
